Values joined by “and” are separate entries in the source; they are usually repeats but may differ in a detail not shown here. Identical values can stand only once.
Assays:
purified human ACE2-Fc = target: T1, purified human ACE2-Fc (Homo sapiens, UniProt Q9BYF1); assay: biochemical; format: binding
T1 construct: purified recombinant human ACE2-Fc (Q18 –S740, peptidase domain) protein; purchased GenScript

[1] = system: SRBD internalisation in ACE2 expressing A549 cells; format: cell-based, human
[2] = system: SARS CoV-2 S-protein (Wuhan-Hu-1 strain, spike trimer) expressing PsV, HEK293T cells stably expressing human ACE2; format: cell-based, SARS-CoV-2 (Wuhan-Hu-1 strain)
[3] = system: IL-1β mRNA, human coronary microvascular endothelial cells; format: cell-based
[4] = system: IL-6 mRNA, human coronary microvascular endothelial cells; format: cell-based
[5] = system: VCAM mRNA, human coronary microvascular endothelial cells; format: cell-based
[6] = system: MCP-1 mRNA, human coronary microvascular endothelial cells; format: cell-based

T1 sequence (Q9BYF1 18-740): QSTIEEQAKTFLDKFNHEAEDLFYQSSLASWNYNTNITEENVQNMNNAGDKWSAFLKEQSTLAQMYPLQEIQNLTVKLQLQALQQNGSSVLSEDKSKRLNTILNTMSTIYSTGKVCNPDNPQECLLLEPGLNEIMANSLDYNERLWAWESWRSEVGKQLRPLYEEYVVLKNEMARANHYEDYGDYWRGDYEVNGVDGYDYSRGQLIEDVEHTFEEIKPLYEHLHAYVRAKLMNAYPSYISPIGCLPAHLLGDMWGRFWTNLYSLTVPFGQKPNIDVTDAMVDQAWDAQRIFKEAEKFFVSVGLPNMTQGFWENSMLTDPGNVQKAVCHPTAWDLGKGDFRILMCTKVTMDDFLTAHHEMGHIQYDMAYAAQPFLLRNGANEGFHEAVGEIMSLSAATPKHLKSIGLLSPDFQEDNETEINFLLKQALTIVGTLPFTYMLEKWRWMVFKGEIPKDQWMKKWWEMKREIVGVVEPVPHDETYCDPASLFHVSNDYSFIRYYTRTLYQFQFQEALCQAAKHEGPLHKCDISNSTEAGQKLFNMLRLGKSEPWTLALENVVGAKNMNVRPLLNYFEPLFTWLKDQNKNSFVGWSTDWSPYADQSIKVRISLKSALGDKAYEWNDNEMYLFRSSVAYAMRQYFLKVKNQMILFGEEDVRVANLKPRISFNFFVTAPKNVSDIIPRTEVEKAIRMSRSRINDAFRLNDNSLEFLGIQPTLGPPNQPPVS

CC(=O)N[C@@H](CO)C(=O)N[C@@H](CCCCN)C(=O)N[C@H](C(=O)NCC(=O)NCC(=O)N[C@@H](CC(N)=O)C(=O)N[C@@H](Cc1ccc(O)cc1)C(=O)N[C@@H](CC(N)=O)C(=O)N[C@@H](Cc1ccc(O)cc1)C(=O)N[C@@H](CC(C)C)C(=O)N[C@@H](Cc1ccc(O)cc1)C(=O)N[C@@H](CCCNC(=N)N)C(=O)N[C@@H](CC(C)C)C(=O)N[C@@H](Cc1ccccc1)C(=O)N[C@@H](CCCNC(=N)N)C(=O)N[C@@H](CCCCN)C(N)=O)C(C)C [RBM1]
Kd (purified human ACE2-Fc): 207 nM
inhibition of SRBD internalisation (in words) [1]: marked, yet non-significant reduction
inhibition of spike PsV cell entry (in words) ([2]; N = 3): did not inhibit PsV cell entry
IL-1β mRNA expression, peptide alone [3]: did not mimic S1 protein-induced inflammation
S1 induced IL-1β mRNA expression, peptide pre-treated [3]: did not attenuate the S1 induced inflammatory response
IL-6, MEAN [4]: 0.7896 and 1.445
IL-6 mRNA expression, peptide alone [4]: did not mimic S1 protein-induced inflammation
S1 induced IL-6 mRNA expression, peptide pre-treated [4]: did not attenuate the S1 induced inflammatory response
S1 induced VCAM mRNA expression, peptide pre-treated [5]: did not attenuate the S1 induced inflammatory response
VCAM mRNA expression, peptide alone [5]: did not mimic S1 protein-induced inflammation
MCP-1 mRNA expression, peptide alone [6]: did not mimic S1 protein-induced inflammation
S1 induced MCP-1 mRNA expression, peptide pre-treated [6]: did not attenuate the S1 induced inflammatory response

Ac-NYGLQGSPFGYQETPYPFCNFVQYG-NH2 [RBM2A-Sc]
binding to ACE2 (in words) (purified human ACE2-Fc): appeared to bind to ACE2 in a dose-dependent manner (Fig 4C) saturation of ACE2 binding was not achieved
inhibition of SRBD internalisation (in words) [1]: did not significantly inhibit SRBD-mediated internalisation
IL-6, MEAN [4]: 0.966 and 1.58

soluble ACE2 protein
inhibition of spike PsV cell entry by soluble ACE2 (in words) [2]: completely blocked spike PsV cell entry

Source: publication PMC8601423 (PLoS ONE, 2021)
